Test results taken from US6777412B2 (priority 1990, dated 2004).
Where two headings read alike, the source gives them in different places. Marks after values point to notes of the source that are not given here.

Experiments:
Assay type in all cases: in vivo
Puccinia recondita = experiment: Foliar fungal disease test on plants: Puccinia recondita (Pr)
Method: (§1) The compounds were tested against a variety of foliar fungal diseases of plants. The technique employed was as follows.
(§2) The plants were grown in John Innes Potting Compost (No.1 or 2) in 4 cm diameter minipots. The test compounds were formulated either by bead milling with aqueous Dispersol T or as a solution in acetone or acetone/ethanol which was diluted to the required concentration immediately before use. For the foliage diseases, the formulations (100 ppm active ingredient except where otherwise indicated) were sprayed onto the foliage and applied to the roots of the plants in the soil. The sprays were applied to maximum retention and the root drenches to a final concentration equivalent to approximately 40 ppm a.i. in dry soil. Tween 20, to give a final concentration of 0.05%, was added when the sprays were applied to cereals.
(§3) For most of the tests the compound was applied to the soil (roots) and to the foliage (by spraying) one or two days before the plant was inoculated with the disease. An exception was the test on Erysiphe graminis in which the plants were inoculated 24 hours before treatment. Foliar pathogens were applied by spray as spore suspensions onto the leaves of test plants. After inoculation, the plants were put into an appropriate environment to allow infection to proceed and then incubated until the disease was ready for assessment. The period between inoculation and assessment varied from four to fourteen days according to the disease and environment.
(§4) The disease control vas recorded by the following grading:
(§5) 3=trace-5% of disease on untreated plants
(§6) 2=6-25% of disease on untreated plants
(§7) 1=26-59% of disease on untreated plants
(§8) 0=60-100% of disease on untreated plants

[1] = tested on: Erysiphe graminis tritici; experiment: Foliar fungal disease test on plants: Erysiphe graminis tritici (Egt)
Method: as §1, §2, §3, §4, §5, §6, §7, §8
Egt Erysiphe graminis tritici

Septoria nodorum = experiment: Foliar fungal disease test on plants: Septoria nodorum (Sn)
Method: as §1, §2, §3, §4, §5, §6, §7, §8

Pyricularia oryzae = tested on: Pyricularia oryzae
Venturia inaequalis = experiment: Foliar fungal disease test on plants: Venturia inaequalis (Vi)
Method: as §1, §2, §3, §4, §5, §6, §7, §8

Plasmopara viticola = experiment: Foliar fungal disease test on plants: Plasmopara viticola (Pv)
Method: as §1, §2, §3, §4, §5, §6, §7, §8

[2] = tested on: Phytophthora infestans lycopersici
[3] = 100 ppm active ingredient foliar spray plus root drench (approx. 40 ppm a.i. in dry soil), one or two days before inoculation
[4] = 100 ppm active ingredient foliar spray plus root drench (approx. 40 ppm a.i. in dry soil), plants inoculated 24 hours before treatment

Compound	disease control grading, Pr (Puccinia recondita) (Puccinia recondita; [3])	disease control grading, Egt (Erysiphe graminis tritici) [1, 4]	disease control grading, Sn (Septoria nodorum) (Septoria nodorum; [3])	disease control grading, Po (Pyricularia oryzae) (Pyricularia oryzae; [3])	disease control grading, Vi (Venturia inaegualis) (Venturia inaequalis; [3])	disease control grading, Pv (Plasmopara viticola) (Plasmopara viticola; [3])	disease control grading, Pil (Phytophthora infestans lycopersici) [2, 3]	disease control grading, Pr (Puccinia recondita) (Puccinia recondita; 10 ppm foliar application only)	disease control grading, Egt (Erysiphe graminis tritici) ([1]; 10 ppm foliar application only)	disease control grading, Sn (Septoria nodorum) (Septoria nodorum; 10 ppm foliar application only)	disease control grading, Po (Pyricularia oryzae) (Pyricularia oryzae; 10 ppm foliar application only)	disease control grading, Vi (Venturia inaegualis) (Venturia inaequalis; 10 ppm foliar application only)	disease control grading, Pv (Plasmopara viticola) (Plasmopara viticola; 10 ppm foliar application only)	disease control grading, Pil (Phytophthora infestans lycopersici) ([2]; 10 ppm foliar application only)	disease control grading, Pr (Puccinia recondita) (Puccinia recondita; 100 ppm foliar application only)
CO/C=C(/C(=O)OC)c1ccccc1Oc1cc(Cc2ccccc2)ncn1 [9 of Table I]	0 (0=60-100% of disease on untreated plants)	4 (4=no disease)	4 (4=no disease)	4 (4=no disease)	4 (4=no disease)	4 (4=no disease)	4 (4=no disease)								
CO/C=C(/C(=O)OC)c1ccccc1Oc1cc(OCc2ccccn2)ncn1 [222 of Table I]	4 (4=no disease)	4 (4=no disease)	3 (3=trace-5% of disease on untreated plants)	4 (4=no disease)	4 (4=no disease)	4 (4=no disease)	0 (0=60-100% of disease on untreated plants)								
CO/C=C(/C(=O)OC)c1ccccc1Oc1cc(OCc2cccnc2)ncn1 [229 of Table I]	4 (4=no disease)	4 (4=no disease)	4 (4=no disease)	4 (4=no disease)	4 (4=no disease)	4 (4=no disease)	3 (3=trace-5% of disease on untreated plants)								
CO/C=C(/C(=O)OC)c1ccccc1Oc1cc(OCc2ccncc2)ncn1 [236 of Table I]	4 (4=no disease)	3 (3=trace-5% of disease on untreated plants)	3 (3=trace-5% of disease on untreated plants)	2 (2=6-25% of disease on untreated plants)	4 (4=no disease)	4 (4=no disease)	4 (4=no disease)								
CO/C=C(/C(=O)OC)c1ccccc1Oc1cc(OCc2cccnn2)ncn1 [271 of Table I]	4 (4=no disease)	3 (3=trace-5% of disease on untreated plants)	2 (2=6-25% of disease on untreated plants)	2 (2=6-25% of disease on untreated plants)	0 (0=60-100% of disease on untreated plants)	0 (0=60-100% of disease on untreated plants)	2 (2=6-25% of disease on untreated plants)								
CO/C=C(/C(=O)OC)c1ccccc1Oc1cc(OCCOc2c(F)cccc2C#N)ncn1 [397 of Table I]	4 (4=no disease)	4 (4=no disease)	3 (3=trace-5% of disease on untreated plants)	4 (4=no disease)	4 (4=no disease)	4 (4=no disease)	3 (3=trace-5% of disease on untreated plants)								
CO/C=C(/C(=O)OC)c1ccccc1Oc1cc(-c2sc(-c3ccccc3O)nc2C)ncn1 [399 of Table I]								0^a (0=60-100% of disease on untreated plants)	0^a (0=60-100% of disease on untreated plants)	0^a (0=60-100% of disease on untreated plants)	0^a (0=60-100% of disease on untreated plants)	3^a (3=trace-5% of disease on untreated plants)	4^a (4=no disease)	0^a (0=60-100% of disease on untreated plants)	
CO/C=C(/C(=O)OC)c1ccccc1Oc1cc(-c2c(N)oc3ccccc23)ncn1 [400 of Table I]	4 (4=no disease)	4 (4=no disease)	4 (4=no disease)	0 (0=60-100% of disease on untreated plants)	4 (4=no disease)	4 (4=no disease)	4 (4=no disease)								
CCOc1ccccc1Nc1cc(Oc2ccccc2/C(=C\OC)C(=O)OC)ncn1 [401 of Table I]	4 (4=no disease)	4 (4=no disease)	4 (4=no disease)	0 (0=60-100% of disease on untreated plants)	4 (4=no disease)	4 (4=no disease)	3 (3=trace-5% of disease on untreated plants)								
CCCCOc1ccccc1Nc1cc(Oc2ccccc2/C(=C\OC)C(=O)OC)ncn1 [402 of Table I]	4 (4=no disease)	4 (4=no disease)	4 (4=no disease)	0 (0=60-100% of disease on untreated plants)	4 (4=no disease)	4 (4=no disease)	3 (3=trace-5% of disease on untreated plants)								
CO/C=C(/C(=O)OC)c1ccccc1Oc1cc(O/N=C(\C)c2ccccc2)ncn1 [403 of Table I]									0^a (0=60-100% of disease on untreated plants)	0^a (0=60-100% of disease on untreated plants)	0^a (0=60-100% of disease on untreated plants)	4^a (4=no disease)	4^a (4=no disease)	1^a (1=26-59% of disease on untreated plants)	4^b (4=no disease)
CO/C=C(/C(=O)OC)c1ccccc1Oc1cc(O/N=C(\C)c2cnccn2)ncn1 [404 of Table I]	4 (4=no disease)	4 (4=no disease)	3 (3=trace-5% of disease on untreated plants)	3 (3=trace-5% of disease on untreated plants)	4 (4=no disease)	4 (4=no disease)	1 (1=26-59% of disease on untreated plants)								
CO/C=C(/C(=O)OC)c1ccccc1Oc1cc(OCc2ccc(F)cc2)ncn1 [405 of Table I]	4 (4=no disease)	4 (4=no disease)	0 (0=60-100% of disease on untreated plants)	4 (4=no disease)	4 (4=no disease)	4 (4=no disease)	4 (4=no disease)								
